Test results: article PMC4364445 (Chemical Science, 2015)

Assays:
[1] = system: human organ tissue enzymes (liver, lung, intestine, kidney microsomes with or without cytosol); assay: ECL enzyme/DNA array DNA damage rate, comparison across organ enzymes; conditions: pH 7.4
[2] = system: rodent; conditions: chronic dietary exposure, ref [40],[49]; cited from earlier work
[3] = system: human intestinal microsomes (HIM); assay: Biocolloid reactor bead LC-MS/MS DNA adduct quantitation, HIM; format: biochemical; conditions: 250 μM 2-AAF, 4 h; organ comparison
[4] = system: mice; conditions: dietary administration, ref [61]; cited from earlier work
[5] = system: human organ microsomes, cytosols and cyt P450 supersomes; assay: Biocolloid reactor bead LC-MS/MS DNA adducts, comparison across enzyme sources; conditions: 250 μM 2-AAF, 4 h; all enzyme sources with cytosol
[6] = target: T1, cyt P450 1B1 supersomes (Homo sapiens, UniProt Q16678); assay: ECL enzyme/DNA array DNA damage rate, cyt P450 1B1; format: biochemical; conditions: pH 7.4
T1 sequence (Q16678 1-543): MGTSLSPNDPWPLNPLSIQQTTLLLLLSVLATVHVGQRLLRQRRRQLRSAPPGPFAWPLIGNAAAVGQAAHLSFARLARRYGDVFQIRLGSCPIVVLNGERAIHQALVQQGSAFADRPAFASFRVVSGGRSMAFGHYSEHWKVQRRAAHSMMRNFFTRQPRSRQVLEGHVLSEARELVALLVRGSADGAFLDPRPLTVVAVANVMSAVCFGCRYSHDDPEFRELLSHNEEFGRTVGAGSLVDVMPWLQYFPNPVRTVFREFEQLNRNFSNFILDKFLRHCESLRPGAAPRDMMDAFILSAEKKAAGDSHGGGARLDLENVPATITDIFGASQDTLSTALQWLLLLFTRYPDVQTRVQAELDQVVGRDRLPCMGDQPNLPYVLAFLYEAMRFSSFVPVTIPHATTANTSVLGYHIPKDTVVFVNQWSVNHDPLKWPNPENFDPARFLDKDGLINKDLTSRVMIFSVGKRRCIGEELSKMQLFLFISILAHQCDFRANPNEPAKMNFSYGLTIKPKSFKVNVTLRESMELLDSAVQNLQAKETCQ

[7] = target: T2, cyt P450 1A2 supersomes (Homo sapiens, UniProt P05177); assay: ECL enzyme/DNA array DNA damage rate, cyt P450 1A2; format: biochemical; conditions: 250 μM 2-AAF, pH 7.4; cyt P450 1A2 compared to cyt P450s 2A6, 3A5 and 1B1
T2 sequence (P05177 2-516 limits assumed): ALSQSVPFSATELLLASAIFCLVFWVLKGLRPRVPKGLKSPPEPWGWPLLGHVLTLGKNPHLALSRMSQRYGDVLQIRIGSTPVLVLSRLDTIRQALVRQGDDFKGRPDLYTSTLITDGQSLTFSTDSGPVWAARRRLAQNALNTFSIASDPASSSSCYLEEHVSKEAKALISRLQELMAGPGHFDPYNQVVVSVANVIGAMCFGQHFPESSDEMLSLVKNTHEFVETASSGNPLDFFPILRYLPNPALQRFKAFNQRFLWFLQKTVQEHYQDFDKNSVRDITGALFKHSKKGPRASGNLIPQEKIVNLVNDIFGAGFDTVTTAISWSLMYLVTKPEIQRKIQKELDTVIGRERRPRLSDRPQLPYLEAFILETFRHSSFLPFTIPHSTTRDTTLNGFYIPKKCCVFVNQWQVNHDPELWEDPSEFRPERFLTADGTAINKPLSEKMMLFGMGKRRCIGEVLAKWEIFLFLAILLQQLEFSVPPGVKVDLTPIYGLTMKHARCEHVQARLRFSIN

[8] = system: male rats; conditions: intraperitoneal, ref [60]; cited from earlier work
[9] = system: cyt P450 supersomes (3A4, 2A6, 3A5) with or without cytosol; assay: ECL enzyme/DNA array DNA damage rate, comparison across cyt P450 supersomes; format: biochemical, human; conditions: 1 mM styrene, pH 7.4; supersomes + cytosol vs supersomes

Row | SMILES | order of DNA damage rates across organs (ECL array) ([1]; 250 μM 2-AAF, microsomes with cytosolic enzymes included) | formation of tumors, organ order [2] | total levels of adducts 8 and 9 (LC-MS/MS) [3] | DNA adduct levels, bladder vs liver [4] | adduct 9 in the presence of cytosol enzymes (LC-MS/MS) [5] | DNA damage-related activity (ECL array) ([6]; 250 μM 2-AAF) | relative DNA damage rate (ECL array) [7] | DNA adduct levels, liver vs bladder [8] | change of rate of DNA damage upon using microsomes and cytosol (ECL array) ([1]; 1 mM styrene, microsomes + cytosol vs microsomes) | DNA damage activity (ECL array) ([6]; 1 mM styrene) | decrease of rate of DNA damage when using cyt P450 supersomes and cytosol (ECL array) [9] [fold]
1 | CC(=O)Nc1ccc2c(c1)Cc1ccccc1-2 [2-AAF, 2-acetylaminofluorene] | kidney > intestine > lung > liver | liver > intestine > kidney | highest for intestine | higher DNA adduct levels in bladder than in liver | not detected | small | significantly larger rate of DNA damage | higher levels of DNA adduct levels in liver than in bladder | – | – | –
2 | C=Cc1ccccc1 [styrene] | – | – | – | – | – | – | – | – | halved | low activity | 10
